{"source": "paper PMC4792161", "about": "“A novel pyrazole derivative protects from ovariectomy-induced osteoporosis through the inhibition of NADPH oxidase” (Scientific Reports, 2016)", "key": {"[1]": {"test": "Direct ROS (H2O2) scavenging in vitro", "conditions": "1 mM NAC, 1 mM H2O2, control scavenger", "description": "Based on the notion that the differentiation of OCs is mediated by Nox1/2/4-dependent ROS generation, we have performed a high throughput enzyme inhibitor screening assay to identify chemical compounds having Nox1/2/4 inhibitory activity for the development of an anti-osteoporosis agent. Purified Drosophila membranes expressing human Nox1, Nox2, or Nox4 were used to monitor ROS production by determining the oxidation of lucigenin, evident as chemiluminescence, in the absence or presence of chemical compound[18]. A chemical library containing 31,000 compounds was screened to identify Nox inhibitors. […] (Fig. 1B, Supplementary Fig. S2). […] Moreover, we investigated whether Ewha-18278 can directly scavenge ROS in vitro.\nSupplementary Figure S3. (A) Ewha-18278 compounds can not directly scavenge superoxide or other reactive species in vitro. ROS (H2O2) measured with lucigenin. Reaction mixtures contained 1 […]\nLuminescence measured over 30 min at 37\n°C with luminometor (Gloma X luminometor, Turner BioSystem). […]\nthe phagocytosis of zymosan. […]\nincubated with FITC-zymosan particles, and internalized fluorescence was measured by flow cytometry. The data are presented as the MFI of internalized FITC. Data represent mean ± S.D. […]"}, "bone density": {"tested_on": "bone density", "parameters": "method as in PMID 16754727", "conditions": "estrogen replacement; cited from earlier work"}, "[2]": {"tested_on": "OVX-induced osteoporotic ddY mice", "test": "Tibia weights (wet, dry, ash) in OVX mice", "assay_type": "in vivo", "conditions": "2.5 mg/kg oral once daily 28 days", "method": "(§1) The right sides of femur and tibia were weighed and then dried at 120 °C for 8 hours. The dried bones were carbonized at 800 °C for 6 hours in a furnace (Daihan Scientific, Korea) to detect ash absolute weights, after measurement of BMD and failure load. To reduce the individual body weight differences, the relative weight (%) was calculated using body weight at sacrifice and absolute weight as [Relative bone weights = (Absolute bone weight/Body weight at sacrifice) ×100]. In addition, ashed bones were ground and dissolved in nitric acid. In diluted solution, Ca and P contents were calculated (mg/g bone) using an orthocresolphthalein complex and enzyme methods, respectively. The Ca/P ratio (%) was calculated as (Tibia Ca contents/Tibia P contents) ×100.\nSupplementary Table S4. Tibia Weights in OVX Mice Values are expressed mean ± S.D. of eight mice Risedronate sodium was administered at 2.5mg/kg levels a p<0.01 as compared with sham control […]\nmaterial OVX = ovariectomy\nGroups Tibia absolute weights (g) Tibia relative weights (% of body weight)Wet Dry Ash Wet Dry Ash"}, "[3]": {"tested_on": "OVX-induced osteoporotic ddY mice", "test": "Femur weights (wet, dry, ash) in OVX mice", "assay_type": "in vivo", "conditions": "2.5 mg/kg oral once daily 28 days", "method": "as §1"}, "[4]": {"tested_on": "OVX-induced osteoporotic ddY mice", "test": "Bone strength (failure load, three-point bending test) in OVX mice", "assay_type": "in vivo", "conditions": "oral once daily 28 days; risedronate 2.5 mg/kg"}, "[5]": {"tested_on": "OVX-induced osteoporotic ddY mice", "test": "Tibia histopathology-histomorphometry in OVX mice", "assay_type": "in vivo", "conditions": "2.5 mg/kg oral once daily 28 days"}, "[6]": {"test": "Body weight changes in OVX mice", "assay_type": "in vivo, ddY mice", "conditions": "risedronate 2.5 mg/kg; Ewha-18278 2.5, 5, 10 and 20 mg/kg; 28 days", "method": "(§2) The study was reviewed and approved by the Institutional Animal Care and Use Committee (IACUC) of Center for Laboratory Animal Sciences, Ewha Industry-University Cooperation Foundation, Ewha Womans University. Experimental methods were carried out in accordance with the approved ethic guidelines in Ewha Industry-University Cooperation Foundation, Ewha Womans University. Beginning 4 weeks after OVX, the female ddY mice received 2.5, 5, 10, or 20 mg/kg of #18–278, 2.5 mg/kg of risedronate, or vehicle once daily for 28 days. The Changes in body weight, bone weight, bone mineral density (BMD), failure load (FL), bone calcium (Ca), inorganic phosphorus (P) contents, histology and histomorphology were monitored. Serum osteocalcin and bone specific alkaline phosphatase (bALP) were monitored in mice receiving Ewha-18278.\nR esi dronat e 2. 5mg/kg t reated mi ce […]\nD ay after administration (d)\nSupplementary Figure S7. Body weight changes in OVX mice. We selected eight mice per group showing more increases of body weights as compared with sham-operated mice and regarded as good OVX animals at four weeks after OVX surgery, consequently, significant increases of body weights were detected in all OVX groups as compared with sham control mice throughout 28 days of […]\nmice, in the present study. Values are expressed mean ± S.D. of eight mice. Risedronate sodium was administered at 2.5mg/kg levels. […]"}, "[7]": {"tested_on": "OVX-induced osteoporotic ddY mice", "test": "Femur histopathology-histomorphometry in OVX mice", "assay_type": "in vivo", "conditions": "2.5 mg/kg oral once daily 28 days", "method": "Risedronate sodium (2.5 mg/kg) served as a reference compound. […] Histopathology and histomorphometrical analyses including trabecular bone volume (BV/TV), trabecular bone number (Tb.N), trabecular bone length (Tb.Le), trabecular bone thickness (Tb.Th), cortical bone thickness (Ct.Th), OC number (N.Oc), bone mineral density (BMD) and bone strength (failure load, FL) were conducted.\nas §2\nThe left side of femur of each mouse was separated and fixed in 10% neutral buffered formalin and decalcified in a solution comprised of 24.4% formic acid and 0.5N sodium hydroxide for 5 days, with spent solution replaced with fresh solution each day. Each sample was embedded in paraffin, sectioned to a thickness of 3–4 μm and exposed to with Hematoxylin & Eosin (H&E) stain. Histomorphometry was conducted as for bone mass and structure with bone resorption in a uniform area of epiphyseal regions of femur (growth plate regions were excluded). Cortical bone thickness was measured in the mid-shaft region of the femur."}, "OVX rats": {"tested_on": "OVX rats", "conditions": "2.5 mg/kg/day for 8 weeks; cited from earlier work"}}, "note": "Marks after values point to notes of the source that are not given here."}
{"smiles": "CC(=O)N[C@@H](CS)C(=O)O", "note": "[N-acetyl cysteine, reference compound]", "values": [{"measurement": "change in hydrogen peroxide concentration (ROS scavenging)", "setting": "[1]", "result": "decrease in hydrogen peroxide concentration"}]}
{"smiles": "O=C(c1ccc(OCCN2CCCCC2)cc1)c1c(-c2ccc(O)cc2)sc2cc(O)ccc12", "note": "[Raloxifene]", "values": [{"measurement": "increase of bone density", "setting": "bone density", "result": "3–4%"}]}
{"smiles": "O=P(O)(O)C(O)(Cc1cccnc1)P(=O)(O)O", "note": "[Risedronate, Risedronate sodium, reference compound]", "values": [{"measurement": "Tibia absolute weights, Ash", "setting": "[2]", "result": 0.031, "unit": "g"}, {"measurement": "Tibia absolute weights, Dry", "setting": "[2]", "result": 0.050, "unit": "g"}, {"measurement": "Tibia absolute weights, Wet", "setting": "[2]", "result": 0.071, "unit": "g"}, {"measurement": "Tibia relative weights, Ash", "setting": "[2]", "result": "0.085 % of body weight"}, {"measurement": "Tibia relative weights, Dry", "setting": "[2]", "result": "0.137 % of body weight"}, {"measurement": "Tibia relative weights, Wet", "setting": "[2]", "result": "0.196 % of body weight"}, {"measurement": "Femur absolute weights, Ash", "setting": "[3]", "result": 0.037, "unit": "g"}, {"measurement": "Femur absolute weights, Dry", "setting": "[3]", "result": 0.066, "unit": "g"}, {"measurement": "Femur absolute weights, Wet", "setting": "[3]", "result": 0.096, "unit": "g"}, {"measurement": "Femur relative weights, Ash", "setting": "[3]", "result": "0.102 % of body weight"}, {"measurement": "Femur relative weights, Dry", "setting": "[3]", "result": "0.181 % of body weight"}, {"measurement": "Femur relative weights, Wet", "setting": "[3]", "result": "0.263 % of body weight"}, {"measurement": "bone strength (FL) of femur and tibia compared to control OVX", "setting": "[4]", "result": "did not show any favorable effects"}, {"measurement": "BV/TV (trabecular bone volume)", "setting": "[5]", "result": "35.71 ± 5.63 ^c %"}, {"measurement": "Ct.Th (cortical bone thickness)", "setting": "[5]", "result": "113.81 ± 14.45 ^a μm"}, {"measurement": "N.OC/BS (osteoclast cell number, N/epiphyseal)", "setting": "[5]", "result": "19.38 ± 3.20 ^ac numbers"}, {"measurement": "Tb.Le (trabecular bone length)", "setting": "[5]", "result": "0.76 ± 0.12 ^ac mm"}, {"measurement": "Tb.N (trabecular bone number, N/epiphyseal)", "setting": "[5]", "result": "19.25 ± 1.67 ^bc numbers"}, {"measurement": "Tb.Th (trabecular bone thickness)", "setting": "[5]", "result": "43.52 ± 8.73 ^ac μm"}, {"measurement": "body weights as compared with OVX control mice", "setting": "[6]", "result": "no meaningful changes"}, {"measurement": "BV/TV (trabecular bone volume)", "setting": "[7]", "result": "38.08 ± 7.20 ^c %"}, {"measurement": "Ct.Th (cortical bone thickness)", "setting": "[7]", "result": "128.36 ± 15.57 ^a μm"}, {"measurement": "N.OC/BS (osteoclast cell number, N/epiphyseal)", "setting": "[7]", "result": "19.00 ± 2.93 ^eg numbers"}, {"measurement": "Tb.Le (trabecular bone length)", "setting": "[7]", "result": "1.04 ± 0.12 ^ac mm"}, {"measurement": "Tb.N (trabecular bone number, N/epiphyseal)", "setting": "[7]", "result": "24.50 ± 4.00 ^eg numbers"}, {"measurement": "Tb.Th (trabecular bone thickness)", "setting": "[7]", "result": "47.25 ± 4.73 ^ad μm"}, {"measurement": "microstructural and biomechanical features of bone", "setting": "OVX rats", "result": "maintains microstructural and biomechanical features of bone"}]}
